Experimental data taken from ChEMBL document CHEMBL1201862, “PubChem BioAssay data set” (2004).
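Values below derive from 48-hour exposures of cells grown in 96-well plates, with endpoints linearly interpolated between the two concentrations bracketing the appropriate inhibition level. At the GI50, growth is halved.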 Active and inactive are the calls of the source. No stated cut-off is given here; in the data, active = GI50 up to about 1.1 µM and inactive = higher.

Tests used:
Assay in all cases: NCI tumour cell line growth inhibition, 48 h
HCT-15 = tested on: HCT-15
PC-3 = tested on: PC-3
UO-31 = tested on: UO-31
MDA-MB-231 = tested on: MDA-MB-231
MCF7 = tested on: MCF7
ACHN = tested on: ACHN
T47D = tested on: T47D
Hs-578T = tested on: Hs-578T
SF-539 = tested on: SF-539
NCI/ADR-RES = tested on: NCI/ADR-RES
SN12C = tested on: SN12C
EKVX = tested on: EKVX
CAKI-1 = tested on: CAKI-1
KM-20L2 = tested on: KM-20L2
SK-MEL-5 = tested on: SK-MEL-5
M14 = tested on: M14
DLD-1 = tested on: DLD-1
MDA-N = tested on: MDA-N
IGROV-1 = tested on: IGROV-1
A498 = tested on: A498
KM12 = tested on: KM12
UACC-62 = tested on: UACC-62
SK-MEL-2 = tested on: SK-MEL-2
TK-10 = tested on: TK-10
HOP-92 = tested on: HOP-92
Malme-3M = tested on: Malme-3M
MOLT-4 = tested on: MOLT-4
SNB-78 = tested on: SNB-78
BT-549 = tested on: BT-549
XF498 = tested on: XF498
COLO 205 = tested on: COLO 205
SF-268 = tested on: SF-268
NCI-H23 = tested on: NCI-H23
SNB-19 = tested on: SNB-19
OVCAR-4 = tested on: OVCAR-4
K562 = tested on: K562
HL-60 = tested on: HL-60
DMS-114 = tested on: DMS-114
SF-295 = tested on: SF-295
786-0 = tested on: 786-0
SK-OV-3 = tested on: SK-OV-3
NCI-H226 = tested on: NCI-H226
HOP-18 = tested on: HOP-18
RXF 631 = tested on: RXF 631
DU-145 = tested on: DU-145
MDA-MB-435 = tested on: MDA-MB-435
HCC 2998 = tested on: HCC 2998
RXF 393 = tested on: RXF 393
HT-29 = tested on: HT-29
HCT-116 = tested on: HCT-116
LXFL 529 = tested on: LXFL 529
NCI-H522 = tested on: NCI-H522
CCRF-CEM = tested on: CCRF-CEM
A549 = tested on: A549
SW-620 = tested on: SW-620
UACC-257 = tested on: UACC-257
NCI-H460 = tested on: NCI-H460
SNB-75 = tested on: SNB-75
M19-MEL = tested on: M19-MEL
RPMI-8226 = tested on: RPMI-8226
OVCAR-5 = tested on: OVCAR-5
HOP-62 = tested on: HOP-62
SR = tested on: SR
OVCAR-8 = tested on: OVCAR-8
SK-MEL-28 = tested on: SK-MEL-28
LOX IMVI = tested on: LOX IMVI
U-251 = tested on: U-251
DMS-273 = tested on: DMS-273
OVCAR-3 = tested on: OVCAR-3

Question: With `C=C1CC2(OC1=O)c1ccccc1C=Cc1ccccc12` as the molecule, how does the GI50 (HCT-15) read?
Answer: 3.25 µM

Question: And the GI50 (PC-3)?
Answer: 5.79 µM (inactive)

Question: And the GI50 (UO-31)?
Answer: 8.3 µM (inactive)

Question: And the GI50 (MDA-MB-231)?
Answer: 2.26 µM (inactive)

Question: What about the GI50 (MCF7) of the same molecule?
Answer: 2.3 µM (inactive)

Question: And the GI50 (ACHN)?
Answer: 4.8 µM (inactive)

Question: What about the GI50 (T47D) of the same molecule?
Answer: 1.93 µM (inactive)

Question: What about the GI50 (Hs-578T) of the same molecule?
Answer: 2.51 µM (inactive)

Question: What about the GI50 (SF-539) of the same molecule?
Answer: 2.83 µM (inactive)

Question: What about the GI50 (NCI/ADR-RES) of the same molecule?
Answer: 1.64 µM (inactive)

Question: What about the GI50 (SN12C) of the same molecule?
Answer: 2.66 µM (inactive)

Question: And the GI50 (EKVX)?
Answer: 8.85 µM (inactive)

Question: What about the GI50 (CAKI-1) of the same molecule?
Answer: 3.05 µM (inactive)

Question: And the GI50 (KM-20L2)?
Answer: 8.13 µM (inactive)

Question: What about the GI50 (SK-MEL-5) of the same molecule?
Answer: 7.33 µM (inactive)

Question: And the GI50 (M14)?
Answer: 4.25 µM (inactive)

Question: What about the GI50 (DLD-1) of the same molecule?
Answer: 1.87 µM (inactive)

Question: And the GI50 (MDA-N)?
Answer: 1.96 µM (inactive)

Question: And the GI50 (IGROV-1)?
Answer: 7.26 µM (inactive)

Question: What about the GI50 (A498) of the same molecule?
Answer: 8.24 µM (inactive)

Question: And the GI50 (KM12)?
Answer: 4.05 µM (inactive)

Question: What about the GI50 (UACC-62) of the same molecule?
Answer: 5.13 µM (inactive)

Question: And the GI50 (SK-MEL-2)?
Answer: 8.65 µM (inactive)

Question: What about the GI50 (TK-10) of the same molecule?
Answer: 5.86 µM (inactive)

Question: And the GI50 (HOP-92)?
Answer: 1.61 µM (inactive)

Question: And the GI50 (Malme-3M)?
Answer: 4.94 µM (inactive)

Question: What about the GI50 (MOLT-4) of the same molecule?
Answer: 1.81 µM (inactive)

Question: What about the GI50 (SNB-78) of the same molecule?
Answer: 3.08 µM (inactive)

Question: And the GI50 (BT-549)?
Answer: 1.83 µM (inactive)

Question: What about the GI50 (XF498) of the same molecule?
Answer: 13.6 µM (inactive)

Question: And the GI50 (COLO 205)?
Answer: 2.3 µM (inactive)

Question: And the GI50 (SF-268)?
Answer: 7.23 µM (inactive)

Question: What about the GI50 (NCI-H23) of the same molecule?
Answer: 6.32 µM (inactive)

Question: What about the GI50 (SNB-19) of the same molecule?
Answer: 16 µM (inactive)

Question: What about the GI50 (OVCAR-4) of the same molecule?
Answer: 4.4 µM (inactive)

Question: What about the GI50 (K562) of the same molecule?
Answer: 1.2 µM (inactive)

Question: And the GI50 (HL-60)?
Answer: 0.661 µM (active)

Question: And the GI50 (DMS-114)?
Answer: 7.76 µM (inactive)

Question: And the GI50 (SF-295)?
Answer: 18 µM (inactive)

Question: What about the GI50 (786-0) of the same molecule?
Answer: 2.86 µM (inactive)

Question: What about the GI50 (SK-OV-3) of the same molecule?
Answer: 16.9 µM (inactive)

Question: What about the GI50 (NCI-H226) of the same molecule?
Answer: 5.08 µM (inactive)

Question: And the GI50 (HOP-18)?
Answer: 14.3 µM (inactive)

Question: What about the GI50 (RXF 631) of the same molecule?
Answer: 9.2 µM (inactive)

Question: And the GI50 (DU-145)?
Answer: 11.5 µM (inactive)

Question: What about the GI50 (MDA-MB-435) of the same molecule?
Answer: 1.68 µM (inactive)

Question: And the GI50 (HCC 2998)?
Answer: 6.95 µM (inactive)

Question: And the GI50 (RXF 393)?
Answer: 3.19 µM (inactive)

Question: And the GI50 (HT-29)?
Answer: 2.44 µM (inactive)

Question: What about the GI50 (HCT-116) of the same molecule?
Answer: 1.73 µM (inactive)

Question: What about the GI50 (LXFL 529) of the same molecule?
Answer: 2.92 µM (inactive)

Question: And the GI50 (NCI-H522)?
Answer: 1.76 µM (inactive)

Question: What about the GI50 (CCRF-CEM) of the same molecule?
Answer: 0.697 µM (active)

Question: And the GI50 (A549)?
Answer: 9.42 µM (inactive)

Question: What about the GI50 (SW-620) of the same molecule?
Answer: 1.5 µM (inactive)

Question: And the GI50 (UACC-257)?
Answer: 5.14 µM (inactive)

Question: What about the GI50 (NCI-H460) of the same molecule?
Answer: 11.2 µM (inactive)

Question: What about the GI50 (SNB-75) of the same molecule?
Answer: 9.18 µM (inactive)

Question: What about the GI50 (M19-MEL) of the same molecule?
Answer: 5.47 µM (inactive)

Question: What about the GI50 (RPMI-8226) of the same molecule?
Answer: 1.42 µM (inactive)

Question: What about the GI50 (OVCAR-5) of the same molecule?
Answer: 9.31 µM (inactive)

Question: And the GI50 (HOP-62)?
Answer: 12.6 µM (inactive)

Question: And the GI50 (SR)?
Answer: 0.82 µM (active)

Question: What about the GI50 (OVCAR-8) of the same molecule?
Answer: 5.21 µM (inactive)

Question: What about the GI50 (SK-MEL-28) of the same molecule?
Answer: 4.34 µM (inactive)

Question: And the GI50 (LOX IMVI)?
Answer: 1.38 µM (inactive)

Question: What about the GI50 (U-251) of the same molecule?
Answer: 8.04 µM (inactive)

Question: And the GI50 (DMS-273)?
Answer: 14.8 µM (inactive)

Question: What about the GI50 (OVCAR-3) of the same molecule?
Answer: 4.61 µM (inactive)

Question: Which results are given for `CCCCCCCCCCCCC(CCCCCCCCCCCC)OP(=O)(O)O`?
Answer: GI50 (HCT-15): 88.3 µM; GI50 (UO-31): 55.6 µM (inactive); GI50 (ACHN): 76.2 µM (inactive); GI50 (SF-539): 46.2 µM (inactive); GI50 (SN12C): > 100 µM (inactive); GI50 (EKVX): > 100 µM (inactive); GI50 (CAKI-1): > 100 µM (inactive); GI50 (KM-20L2): > 100 µM (inactive); GI50 (SK-MEL-5): > 100 µM (inactive); GI50 (M14): > 100 µM (inactive); GI50 (DLD-1): > 100 µM (inactive); GI50 (IGROV-1): 87.3 µM (inactive); GI50 (A498): 20.6 µM (inactive); GI50 (KM12): > 100 µM (inactive); GI50 (UACC-62): > 100 µM (inactive); GI50 (SK-MEL-2): 65.2 µM (inactive); GI50 (TK-10): > 100 µM (inactive); GI50 (HOP-92): 56.1 µM (inactive); GI50 (Malme-3M): > 100 µM (inactive); GI50 (MOLT-4): 59.2 µM (inactive); GI50 (SNB-78): > 100 µM (inactive); GI50 (XF498): > 100 µM (inactive); GI50 (COLO 205): > 100 µM (inactive); GI50 (SF-268): > 100 µM (inactive); GI50 (NCI-H23): > 100 µM (inactive); GI50 (SNB-19): 91.6 µM (inactive); GI50 (OVCAR-4): > 100 µM (inactive); GI50 (K562): 62.2 µM (inactive); GI50 (HL-60): 47.3 µM (inactive); GI50 (DMS-114): > 100 µM (inactive); GI50 (SF-295): > 100 µM (inactive); GI50 (786-0): > 100 µM (inactive); GI50 (SK-OV-3): > 100 µM (inactive); GI50 (NCI-H226): 75.9 µM (inactive); GI50 (HOP-18): > 100 µM (inactive); GI50 (RXF 631): 94.4 µM (inactive); GI50 (HCC 2998): > 100 µM (inactive); GI50 (RXF 393): > 100 µM (inactive); GI50 (HT-29): > 100 µM (inactive); GI50 (HCT-116): 73.3 µM (inactive); GI50 (LXFL 529): > 100 µM (inactive); GI50 (NCI-H522): 84.7 µM (inactive); GI50 (CCRF-CEM): > 100 µM (inactive); GI50 (A549): > 100 µM (inactive); GI50 (SW-620): > 100 µM (inactive); GI50 (UACC-257): > 100 µM (inactive); GI50 (NCI-H460): > 100 µM (inactive); GI50 (SNB-75): 43.4 µM (inactive); GI50 (M19-MEL): > 100 µM (inactive); GI50 (RPMI-8226): 56.6 µM (inactive); GI50 (OVCAR-5): > 100 µM (inactive); GI50 (HOP-62): > 100 µM (inactive); GI50 (SR): > 100 µM (inactive); GI50 (OVCAR-8): > 100 µM (inactive); GI50 (SK-MEL-28): > 100 µM (inactive); GI50 (LOX IMVI): > 100 µM (inactive); GI50 (U-251): 34 µM (inactive); GI50 (DMS-273): > 100 µM (inactive); GI50 (OVCAR-3): > 100 µM (inactive)
